# Tests used:
# [1] = target: T1, Polo-like kinase 1 (PLK1) (Homo sapiens, UniProt P53350); assay: (soak, […] Å); IC50 by TR-FRET kinase assay at […] ATP; assay type: biochemical; parameters: kinase domain, residues 33–345 (Ala33–Lys345), PLK1^WT; with DARPin 3H10 (crystal structure only)
# [2] = target: T1, Polo-like kinase 1 (PLK1); assay: TR-FRET kinase-activity assay, […] ATP; assay type: biochemical; parameters: kinase domain, residues 33–345, PLK1^WT
# T1 sequence (P53350 33-345): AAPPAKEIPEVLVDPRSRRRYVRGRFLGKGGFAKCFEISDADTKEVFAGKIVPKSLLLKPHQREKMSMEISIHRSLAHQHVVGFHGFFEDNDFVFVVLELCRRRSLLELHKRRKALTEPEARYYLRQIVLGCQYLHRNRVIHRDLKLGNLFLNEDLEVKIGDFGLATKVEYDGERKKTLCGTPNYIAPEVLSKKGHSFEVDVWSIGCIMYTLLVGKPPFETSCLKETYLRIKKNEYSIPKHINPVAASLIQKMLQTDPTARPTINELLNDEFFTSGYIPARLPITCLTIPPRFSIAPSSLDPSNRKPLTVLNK
Structure (SMILES),IC50 [1] [nM],IC50 [2] [nM]
"CCn1c(=O)c(=CNc2ccnc(N(C)C3CCN(C)CC3)c2)s/c1=C(/C#N)C(=O)NCC(F)(F)F [compound 1, (2Z)-2-cyano-2-{3-ethyl-5-[({2-[methyl(1-methylpiperidin-4-yl)amino]pyridin-4-yl}amino)methylidene]-4-oxo-1,3-thiazolidin-2-ylidene}-N-(2,2,2-trifluoroethyl)acetamide]",3.6 ± 2.3,
CCn1c(=C(C#N)C(=O)NCC(F)(F)F)sc(=CNc2cccc(CCN3CCCC3)c2)c1=O [ZK-Thiazolidinone],,178 ± 52.6

# Source: PMC12809504, “Polo-like kinase 1–inhibitor co-complex structures via the surface-entropy reduction approach and a DARPin-assisted approach” (Acta Crystallographica Section D: Structural Biology, 2025)
